Assay results published in patent publication US5397777A, “Meso poly(4-sulfonatophenyl) porphines as MRI image enhancing agents” (Health Research, Inc., priority 1993, dated 1995).
Like-named read-outs stand apart in the source and are kept apart here.

Tests used:
[1] = mouse, in vivo; for Ratios of the concentration of porphyrins in liver to kidney / Ratios of the concentration of porphyrins in tumor to muscle: iv
Protocol: Measured concentrations are averages for two mice.
Biodistribution (liver, kidney, muscle and tumor) of the four manganese porphyrins was measured by absorption spectroscopy of ammonia/methanol mixtures and expressed as μg metalloporphyrin per gram of tissue (wet weight). Quantitation was based upon the extinction coefficient for each porphyrin as predetermined in the extraction solutions.
SMT-F (spontaneous mammary carcinoma) was maintained in the laboratory on a biweekly schedule in which 1 mm^3 pieces of tumor were implanted in the flank of DBA/2HaRos-d^+Ha mice. Porphyrins were delivered by intravenous injection in the tail vein.
The distribution of each porphyrin in kidney, liver, muscle and tumor was determined at 1 and 24 hours post injection.

[2] = test system: SMT-F (spontaneous mammary carcinoma); assay: Relaxivity in excised tumor tissue at 10.7 MHz; format: in vivo, DBA/2HaRos-d^+Ha mice; conditions: 24 hours post injection; for Relaxivity of tumors excised from mice (relaxation rate of treated minus untreated tissue divided by porphyrin concentration in tumor tissue): 100 mg/kg, 10.7 MHz, 37° C.
Protocol: Relaxation and biodistribution measurements were carried out using procedures known to those skilled in the art, e.g., Fiel et. al., supra. Briefly, the longitudinal relaxation time (T1) for excised tissue was measured at 37° C., with a Praxis II™ relaxometer (Praxis Corporation, San Antonio, Tex.) operating at 10.7 MHz and employing a saturation recovery pulse sequence.
Relaxivity in tumor tissue was measured for each porphyrin on excised tissue at 10.7 MHz, 24 hours post injection of a 100 mg/kg dose (table 3).
*Expressed as the relaxation rate of tissue from treated animals (24 hrs)
minus the relaxation rate of tissue from untreated animal (control)
divided by the concentration of porphyrin in the tumor tissue.

[3] = test system: SMT-F (spontaneous mammary carcinoma); assay: Magnetic resonance imaging of tumor bearing mouse, signal intensity; format: in vivo, DBA/2HaRos-d^+Ha mice; conditions: for tumor appearance in MR image / kidney signal in MR image / Normalized Signal Intensity, confidence interval / Normalized Signal Intensity, range / Normalized Signal Intensity, mean ± SD: 100 mg/kg; for kidney signal in MR image: region of the pelvis; for Normalized Signal Intensity, confidence interval: 99% (t test); for Normalized Signal Intensity, range: control 0.652-0.701; for Normalized Signal Intensity, mean ± SD: control 0.685 ± .015
Protocol: Control (upper left), 1 hour post injection (100 mg/kg) of Mn(III)TPPS3 (upper right), and 24 hours post injection (lower left). […] Image intensity working standards (top to bottom) 28 mM CuSO4 in 1N HCl, 5 mM GdDTPA in isotonic saline and baby oil.
Magnetic resonance images were made using a custom-built small animal (mouse) transmitter/receiving coil similar to the design of Henkelman et al., Small Animal Imaging With A Clinical Imager. Magn. Reson. Med. 4:61-66; 1987, and tuned to 15 MHz for use with a Diasonics™ 0.35 Tesla clinical scanner. Images were made using a TR of 500 msec. and a TE of 50 msec. with a slice thickness of 2.5 mm.
Images were analyzed using a Hewlett Packard Vectra™ ES/12 personal computer with high resolution VGA graphics after digitization via a Dage 70™ camera with Vidicon tube utilizing a Matrox™ MVP AT image capture/display board. Signal intensity measurements were made from selected areas of interest (AOI) using Image-Pro II™ software (Media Cybernetics, Silver Spring, MD). Any suitable similar apparatus and software can of course be used. Generally an entire section (image slice) of tumor was circumscribed using a free-form area of interest option. The area of interest was then represented by a histogram relating pixel frequency to gray level. Each gray level (0-255) was multiplied by its associated frequency. The resulting products were summed and divided by the area of interest in units of centimeter squared. The procedure was repeated three times to determine a mean value for the tumor at each time period. The same procedure was carried out for the midrange working standard (5 mM Gd DTPA).
The visual differences (intensity) noted between control and treated (FIG. 2) were quantitated using mean intensity values normalized to corresponding working standards. The results (table 4) indicate that differences between control and enhanced and between one and 24 hrs are significant. Signal intensity measured at 24 hrs is 21% higher than control and 7% higher than the value determined at 1 hr. Note that this analysis ignores the fact that the increase in intensity at 24 hrs is actually concentrated into a relatively small area of the tumor by averaging over the entire section.

L1210 cells = test system: L1210 cells; set-up: unit not given beside the values; conditions: mouse, 48 h
[4] = Hydrophobicity of the porphyrins; format: physicochemical; conditions: rank within the series of four

O=S(=O)([O-])c1ccc(-c2c3nc(c(-c4ccc(S(=O)(=O)[O-])cc4)c4ccc([nH]4)c(-c4ccc(S(=O)(=O)[O-])cc4)c4nc(c(-c5ccccc5)c5ccc2[nH]5)C=C4)C=C3)cc1.[Mn+3] [MnTPPS3, manganese III meso-[tri(4-sulfonatophenyl)phenyl]porphine]
concentration in kidney [1]: high concentration found in the kidney at 1 hour | kidney clearance [1]: cleared rapidly and concentrated in the urine | Ratios of the concentration of porphyrins in liver to kidney ([1]; 60 min): 0.7 | Ratios of the concentration of porphyrins in tumor to muscle ([1]; 60 min): 3.2 | Ratios of the concentration of porphyrins in liver to kidney ([1]; 1440 min): 1.8 | tumor uptake, tumor/muscle ratio and relaxivity in tumor tissue, overall ranking [2]: superior to all others in regard to tumor uptake, tumor/muscle ratio and relaxivity in tumor tissue | tumor appearance in MR image ([3]; 1 hour post injection): the tumor appears somewhat brighter than the control, although it remains homogeneous | kidney signal in MR image ([3]; 1 hour post injection): high intensity signal in the region of the pelvis | kidney signal in MR image ([3]; 1 hour post injection, listed as Mn(III)TPPS3, 100 mg/kg): concentration of porphyrin in kidneys at 1 hour | Normalized Signal Intensity, confidence interval ([3]; 1 hr post injection, tumor): 0.769-0.784 | Normalized Signal Intensity, range ([3]; 1 hr post injection, tumor): 0.766-0.780 | Normalized Signal Intensity, mean ± SD ([3]; 1 hr post injection, tumor): 0.774 ± .006 | tumor appearance in MR image ([3]; 24 hours post injection): the tumor appears very heterogeneous | tumor appearance in MR image ([3]; 24 hours post injection, listed as Mn(III)TPPS3, 100 mg/kg): heterogeneous signal enhancement in tumor at 24 hours | Normalized Signal Intensity, confidence interval ([3]; 24 hrs post injection, tumor): 0.815-0.841 | Normalized Signal Intensity, range ([3]; 24 hrs post injection, tumor): 0.820-0.836 | Normalized Signal Intensity, mean ± SD ([3]; 24 hrs post injection, tumor): 0.828 ± .007 | Signal intensity increase over the value at 1 hr ([3]; 24 hrs vs 1 hr, tumor): 7% | Signal intensity increase over control ([3]; 24 hrs vs control, tumor): 21% | LD50 for L1210 cells in culture at day 2 (L1210 cells): 1010

O=S(=O)([O-])c1ccc(-c2c3nc(c(-c4ccc(S(=O)(=O)[O-])cc4)c4ccc([n-]4)c(-c4ccc(S(=O)(=O)[O-])cc4)c4ccc([n-]4)c(-c4ccc(S(=O)(=O)[O-])cc4)c4nc2C=C4)C=C3)cc1.[Mn+3] [MnTPPS4, manganese III meso-tetra(4-sulfonatophenyl)porphine, reference compound]
Ratios of the concentration of porphyrins in liver to kidney ([1]; 60 min): 0.3 | Ratios of the concentration of porphyrins in liver to kidney ([1]; 1440 min): 0.3 | Relaxivity of tumors excised from mice (relaxation rate of treated minus untreated tissue divided by porphyrin concentration in tumor tissue) [2]: 0.207 ± .004 | hydrophobicity [4]: the least hydrophobic porphyrin

manganese III meso-[cis-di(4-sulfonatophenyl)diphenyl]porphine [MnTPPS2(cis)]
Ratios of the concentration of porphyrins in liver to kidney ([1]; 60 min): 6.4 | Ratios of the concentration of porphyrins in tumor to muscle ([1]; 60 min): 2.8 | Ratios of the concentration of porphyrins in liver to kidney ([1]; 1440 min): 5.5 | Ratios of the concentration of porphyrins in tumor to muscle ([1]; 1440 min): 9.7 | Relaxivity of tumors excised from mice (relaxation rate of treated minus untreated tissue divided by porphyrin concentration in tumor tissue) ([2]; measurement from one mouse): 0.361 | tumor uptake, tumor/muscle ratio and relaxivity in tumor tissue, overall ranking [2]: superior to MnTPPS4

manganese III meso-[trans-di(4-sulfonato-phenyl)diphenyl]porphine [MnTPPS2(trans)]
Ratios of the concentration of porphyrins in liver to kidney ([1]; 60 min): 4.4 | Ratios of the concentration of porphyrins in tumor to muscle ([1]; 60 min): 2.3 | Ratios of the concentration of porphyrins in liver to kidney ([1]; 1440 min): 3.8 | Ratios of the concentration of porphyrins in tumor to muscle ([1]; 1440 min): 11.6 | Relaxivity of tumors excised from mice (relaxation rate of treated minus untreated tissue divided by porphyrin concentration in tumor tissue) [2]: 0.296 ± .045 | tumor uptake, tumor/muscle ratio and relaxivity in tumor tissue, overall ranking [2]: superior to MnTPPS4
